This experiment has as its target human RIP1 kinase domain (2-375) (Homo sapiens (Human), UniProt Q13546). Briefly: biochemical. It counts as biochemical. Particulars: 50 uM ATP. As to the method: Example 794: RIP1 Kinase Inhibition Assays (Biochemical Assay)
The compounds of the present invention were tested for their capacity to inhibit RIP1K activity as described below.
The ability of the receptor interacting protein kinase (RIPK1) to catalyze the hydrolysis of adenosine-5′-triphosphate (ATP) is monitored using the Transcreener ADP (adenosine-5′-diphosphate) assay (BellBrook Labs). Purified human RIP1 kinase domain (2-375) (50 nM) derived from a baculovirus-infected insect cell expression system is incubated with test compounds for 2 hours in 50 mM Hepes buffer (pH 7.5) containing 30 mM MgCl2, 1 mM dithiothreitol, 50 uM ATP, 0.002% Brij-35, and 0.5% dimethyl sulfoxide (DMSO). […] The tracer bound to the antibody is displaced by the ADP generated during the RIP1K reaction, which causes a decrease in fluorescence polarization that is measured by laser excitation at 633 nm with a FP microplate reader M1000. Fractional activity was plotted against test article concentration. Using Genedata Screener software (Genedata; Basel, Switzerland), the data were fit to the tight-binding apparent inhibition constant (Ki^app) Morrison equation [Williams, J. W. and Morrison, J. F. (1979) The kinetics of reversible tight-binding inhibition. Methods Enzymol 63: 437-67]. The following equation was used to calculate fractional activity and Ki^app:
[formula] where [E]T and [I]T are the total concentrations of active enzyme and test article, respectively.
“Method” in the first column of each table refers to the synthetic method(s) used to prepare each compound as shown in the Examples above. In certain examples, chiral column retention times (min) are provided for certain stereoisomers.

Where [1] appears, read: tight-binding apparent inhibition constant, human RIP1 kinase domain (2-375) 50 nM, 2 hours, read-out: Ki.
Where [2] appears, read: human RIP1 kinase domain (2-375), Transcreener ADP assay, 2 hours incubation, read-out: RIP1 Ki.
[3] abbreviates: Table 1, apparent Ki (Morrison tight-binding fit), 50 nM RIP1 kinase domain, 2 hours incubation, read-out: RIP1 Ki.
Setting [4] is: human RIP1 kinase domain (2-375), 2 hours incubation, Transcreener ADP assay, read-out: RIP1 Ki.

Like-named read-outs stand apart in the source and are kept apart here.

Sequence of human RIP1 kinase domain (2-375) (Q13546 2-375): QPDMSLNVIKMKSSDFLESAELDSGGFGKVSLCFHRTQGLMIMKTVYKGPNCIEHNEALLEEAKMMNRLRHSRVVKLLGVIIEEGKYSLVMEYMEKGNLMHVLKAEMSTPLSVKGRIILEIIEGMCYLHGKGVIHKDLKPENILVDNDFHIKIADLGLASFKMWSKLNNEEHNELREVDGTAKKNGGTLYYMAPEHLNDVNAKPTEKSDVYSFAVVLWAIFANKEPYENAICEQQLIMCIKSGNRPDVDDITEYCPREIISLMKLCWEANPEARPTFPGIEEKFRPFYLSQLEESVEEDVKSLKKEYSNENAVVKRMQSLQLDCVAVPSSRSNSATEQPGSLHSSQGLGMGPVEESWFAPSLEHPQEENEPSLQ

For the compound `Cc1cc2n(n1)CC[C@H](NC(=O)c1ncc3c(n1)C(C)(CC(F)(F)F)OC3)C(=O)N2C` (stereo partly drawn) [Example 487, 7-methyl-N-[(6S)-2,4-dimethyl-5-oxo-7,8-dihydro-6H-pyrazolo[1,5-a][1,3]diazepin-6-yl]-7-(2,2,2-trifluoroethyl)-5H-furo[3,4-d]pyrimidine-2-carboxamide], the Ki under setting [1] was 370 nM.
`CN1C(=O)[C@@H](NC(=O)c2nc3cccc(-c4cnn(C)c4)n3n2)COc2ccccc21` [Example 398, (S)-5-(1-methyl-1H-pyrazol-4-yl)-N-(5-methyl-4-oxo-2,3,4,5-tetrahydrobenzo[b][1,4]oxazepin-3-yl)-[1,2,4]triazolo[1,5-a]pyridine-2-carboxamide]: the Ki under setting [1] was 36 nM.
Take `CCC1(C)OCc2cnc(C(=O)N[C@H]3COc4ccccc4N(C)C3=O)nc21` (stereo partly drawn) [Example 310, 7-ethyl-7-methyl-N—((S)-5-methyl-4-oxo-2,3,4,5-tetrahydrobenzo[b][1,4]oxazepin-3-yl)-5,7-dihydrofuro[3,4-d]pyrimidine-2-carboxamide]: under setting [2], the Ki was found to be 37.2 nM.
With `CN1C(=O)[C@@H](NC(=O)c2ncn(CC3(C)CCC3)n2)CCn2nc(C3CC3)cc21` [Example 561], the Ki under setting [1] came out at 100 nM.
As for `CC(C)c1cc2n(n1)CCC(NC(=O)c1ncn(Cc3ccccc3)n1)C(=O)N2C` (stereo not drawn) [Example 455, 1-Benzyl-N-(2-isopropyl-4-methyl-5-oxo-5,6,7,8-tetrahydro-4H-pyrazol[1,5-a][1,3]diazepin-6-yl)-1H-1,2,4-triazole-3-carboxamide], under setting [1], the Ki worked out at 60 nM.
On to `CCc1cccc2nc(C(=O)N[C@H]3CCn4nccc4N(C)C3=O)nn12` [Example 374, (S)-5-ethyl-N-(4-methyl-5-oxo-5,6,7,8-tetrahydro-4H-pyrazolo[1,5-a][1,3]diazepin-6-yl)-[1,2,4]triazolo[1,5-a]pyridine-2-carboxamide], for which the Ki under setting [1] was found to be 269 nM.
Turning to `CC[C@H]1C[C@H](Cn2cnc(C(=O)N[C@H]3CCn4nccc4N(C)C3=O)n2)C1` [Example 503, N—((S)-4-methyl-5-oxo-5,6,7,8-tetrahydro-4H-pyrazolo[1,5-a][1,3]diazepin-6-yl)-1-(((1S,3 S)-3-ethylcyclobutyl)methyl)-1H-1,2,4-triazole-3-carboxamide], under setting [1], the Ki is 23 nM.
On to `CN1C(=O)[C@@H](NC(=O)c2ncn(Cc3ccc(Cl)cc3Cl)n2)CCn2nc(C3CC3)cc21` [Example 307, (S)—N-(2-cyclopropyl-4-methyl-5-oxo-5,6,7,8-tetrahydro-4H-pyrazolo[1,5-a][1,3]diazepin-6-yl)-1-(2,4-dichlorobenzyl)-1H-1,2,4-triazole-3-carboxamide], for which the Ki under setting [2] was 8.5 nM.
On to `CN1C(=O)[C@@H](NC(=O)c2nc3c(-c4ccccc4)nccn3n2)COc2ccccc21` [Example 442, (S)—N-(5-methyl-4-oxo-2,3,4,5-tetrahydrobenzo[b][1,4]oxazepin-3-yl)-8-phenyl-[1,2,4]triazolo[1,5-a]pyrazine-2-carboxamide], for which, under setting [1], the Ki was 7.83 nM.
`CC[C@@H]1CCc2nc(C(=O)N[C@H]3COc4ccccc4N(C)C3=O)nn21` (single isomer, unassigned) [Example 359]: under setting [1], the Ki was 303 nM.
With `Cc1cnn2c1N(C)C(=O)C(NC(=O)c1nnc(Cc3ccccc3)[nH]1)CC2` (stereo not drawn) [Example 31, 5-benzyl-N-(3,4-dimethyl-5-oxo-7,8-dihydro-6H-pyrazolo[1,5-a][1,3]diazepin-6-yl)-4H-1,2,4-triazole-3-carboxamide], the Ki under setting [3] worked out at 140 nM.
With `CN1C(=O)[C@H](NC(=O)c2ncn(Cc3ccc(F)cc3F)n2)CCn2nc([C@H]3CC3(F)F)cc21` [Example 316, 1-(2,4-difluorobenzyl)-N—((R)-2-((R)-2,2-difluorocyclopropyl)-4-methyl-5-oxo-5,6,7,8-tetrahydro-4H-pyrazolo[1,5-a][1,3]diazepin-6-yl)-1H-1,2,4-triazole-3-carboxamide], the Ki under setting [2] was determined as 31.8 nM.
For `Cc1cc2n(n1)CC[C@H](NC(=O)c1ncn(C[C@H]3C[C@H](C(F)(F)F)C3)n1)C(=O)N2C` [Example 483], the Ki under setting [1] came out at 110 nM.
For the compound `CCC1CCc2nc(C(=O)N[C@H]3COc4ccccc4N(C)C3=O)nn21` (stereo partly drawn) [Example 355, 5-ethyl-N-[(3S)-5-methyl-4-oxo-2,3-dihydro-1,5-benzoxazepin-3-yl]-6,7-dihydro-5H-pyrrolo[1,2-b][1,2,4]triazole-2-carboxamide], the Ki under setting [1] was determined as 52.1 nM.
As to `CN1C(=O)[C@@H](NC(=O)c2cc3c(cn2)COC3(C)CC(F)(F)F)CCn2nccc21` (stereo partly drawn) [Example 106, 1-methyl-N—((S)-4-methyl-5-oxo-5,6,7,8-tetrahydro-4H-pyrazolo[1,5-a][1,3]diazepin-6-yl)-1-(2,2,2-trifluoroethyl)-1,3-dihydrofuro[3,4-c]pyridine-6-carboxamide], the Ki under setting [4] is 834 nM.
On to `CN1C(=O)[C@@H](NC(=O)c2ccc3c(n2)CCCC3)COc2ccccc21` [Example 51, (S)-N-(5-methyl-4-oxo-2,3,4.5-tetrahydrobenzo[b][1,4]oxazepin-3-yl)-5,6,7,8-tetrahydroquinoline-2-carboxamide], for which the Ki under setting [3] amounted to 8900 nM.
Turning to `CN1C(=O)[C@@H](NC(=O)c2cc(C3(O)CCC3)ccn2)COc2ccccc21` [Example 327, (S)-4-(1-hydroxycyclobutyl)-N-(5-methyl-4-oxo-2,3,4,5-tetrahydrobenzo[b][1,4]oxazepin-3-yl)picolinamide], the Ki under setting [2] is 1370 nM.
The same measure, in the same setting: to `CN1C(=O)[C@@H](NC(=O)c2cc3c(cn2)COC32CCOC2)COc2ccccc21` (stereo partly drawn) [Example 232, N—((S)-5-methyl-4-oxo-2,3,4,5-tetrahydrobenzo[b][1,4]oxazepin-3-yl)-4,5-dihydro-2H,3′ H-spiro[furan-3,1′-furo[3,4-c]pyridine]-6′-carboxamide] belongs 88.7 nM.
For the compound `CN1C(=O)[C@@H](NC(=O)c2cc3c(cn2)COC32CCOCC2)COc2ccccc21` [Example 299, (S)—N-(5-methyl-4-oxo-2,3,4,5-tetrahydrobenzo[b][1,4]oxazepin-3-yl)-2′,3′,5′,6′-tetrahydro-3H-spiro[furo[3,4-c]pyridine-1,4′-pyran]-6-carboxamide], the Ki under setting [2] stood at 74 nM.
The same measure, in the same setting: next, `CN1C(=O)C(NC(=O)c2ncn(CCC(F)(F)F)n2)CCn2nc(C3CC3)cc21` (stereo not drawn) [Example 258, N-(2-cyclopropyl-4-methyl-5-oxo-5,6,7,8-tetrahydro-4H-pyrazolo[1,5-a][1,3]diazepin-6-yl)-1-(3,3,3-trifluoropropyl)-1H-1,2,4-triazole-3-carboxamide]: 1600 nM.
As to `CN1C(=O)[C@H](NC(=O)c2ncn(Cc3ccccc3)n2)CCn2nc([C@H]3CC3(F)F)cc21` (racemic) [Example 674, 1-benzyl-N-[rac-(6R)-4-methyl-5-oxo-2-[rac-(1R)-2,2-difluorocyclopropyl]-7,8-dihydro-6H-pyrazolo[1,5-a] [1,3]diazepin-6-yl]-1,2,4-triazole-3-carboxamide], the Ki under setting [1] is 3980 nM.
The same measure, in the same setting: next, `O=C(N[C@H]1COc2cc(F)cc(F)c2NC1=O)c1nc2n(n1)[C@@H](C(F)(F)F)CCC2` (single isomer, unassigned) [Example 431]: 434 nM.
Still for that read-out and setting: to `CN1C(=O)[C@@H](NC(=O)c2nc3n(n2)[C@H](c2ccccc2F)CC3)CCn2nccc21` [Example 669, (5S)-5-(2-fluorophenyl)-N-[(6S)-4-methyl-5-oxo-7,8-dihydro-6H-pyrazolo[1,5-a][1,3]diazepin-6-yl]-6,7-dihydro-5H-pyrrolo[1,2-b][1,2,4]triazole-2-carboxamide] belongs 610 nM.
For the compound `CN1C(=O)[C@@H](NC(=O)c2ncn(Cc3cccc(Cl)c3Cl)n2)CCn2nc(C3CC3)cc21` [Example 306, (S)—N-(2-cyclopropyl-4-methyl-5-oxo-5,6,7,8-tetrahydro-4H-pyrazolo[1,5-a][1,3]diazepin-6-yl)-1-(2,3-dichlorobenzyl)-1H-1,2,4-triazole-3-carboxamide], the Ki under setting [2] worked out at 14.6 nM.
Regarding `CN1C(=O)[C@@H](NC(=O)c2ncn(Cc3ccccc3)n2)CC[C@@H]2[C@H]1C2(F)F` (single isomer, unassigned) [Example 129], the Ki under setting [4] stood at 388 nM.
As for `CC1CCc2n[nH]c(C(=O)N[C@H]3CCc4cc(Cl)ccc4NC3=O)c2C1` (stereo partly drawn) [Example 46, N-((S)-7-chloro-2-oxo-2,3,4,5-tetrahydro-1H-benzo[b]azepin-3-yl)-5-methyl-4,5,6,7-tetrahydro-2H-indazole-3-carboxamide], the Ki under setting [3] came to 135 nM.
On to `CN1C(=O)[C@@H](NC(=O)c2nc3n(n2)[C@@H](c2c(F)cccc2F)CCC3)CCn2nccc21` (racemic) [Example 401, (R)-5-(2,6-difluorophenyl)-N—((S)-4-methyl-5-oxo-5,6,7,8-tetrahydro-4H-pyrazolo[1,5-a][1,3]diazepin-6-yl)-5,6,7,8-tetrahydro-[1,2,4]triazolo[1,5-a]pyridine-2-carboxamide], for which the Ki under setting [1] is 87.9 nM.

The values above are taken from patent publication US10988459B2 (priority 2015, dated 2021).
